Results on eight molecules are retold here after patent US10667517B2, “2-(Het)aryl-substituted fused heterocycle derivatives as pesticides” (BAYER CROPSCIENCE AKTIENGESELLSCHSAFT, priority 2015, dated 2020).

A short description of data set [1]: log P (neutral), HPLC on reversed-phase column (C 18), LC-MS neutral range. The format is physicochemical. The settings on record: pH 7.8, ammonium hydrogencarbonate/acetonitrile; for chromatographic logP: reversed-phase HPLC column (C 18), pH 7.8, HPLC reversed-phase C 18, 55° C.; for log P (neutral): HPLC reversed-phase C 18, 55° C. The procedure: Temperature: 55° C. […] Called log P (neutral) in the table.

The subject of the next data set is Phaedon cochleariae. Nature of the data set: Phaedon cochleariae - spray test. Type of data set: in vivo. The settings on record: mustard beetle larvae on Chinese cabbage leaf discs, after 7 days; for pest or weed control at 500 g/ha / efficacy: application rate 500 g/ha. As for the experimental part:
Phaedon cochleariae—Spray Test
(§1) • Solvent: 78.0 parts by weight of acetone • 1.5 parts by weight of dimethylformamide • Emulsifier: alkylaryl polyglycol ether
(§2) To produce a suitable active compound preparation, 1 part by weight of active compound is dissolved with the stated parts by weight of solvent and made up with water containing an emulsifier concentration of 1000 ppm until the desired concentration is attained. To produce further test concentrations, the preparation is diluted with emulsifier-containing water.
After 7 days, the efficacy in % is determined. 100% means that all the beetle larvae have been killed; 0% means that no beetle larvae have been killed.

For another data set, the system named is Spodoptera frugiperda. Nature of the data set: Spodoptera frugiperda - spray test. The format is in vivo. Particulars: application rate 500 g/ha; armyworm caterpillars on maize leaf discs; after 7 days. As for the experimental part: Spodoptera frugiperda—Spray Test
as §1, §2
Leaf discs of maize (Zea mays) are sprayed with an active compound preparation of the desired concentration and, after drying, populated with caterpillars of the armyworm (Spodoptera frugiperda).
After 7 days, the efficacy in % is determined. 100% means that all the caterpillars have been killed; 0% means that no caterpillars have been killed.

The next data set concerns Myzus persicae. Description: Myzus persicae - spray test. The settings on record: application rate 500 g/ha; all stages of green peach aphid on Chinese cabbage leaf discs; after 5-6 days. Type of data set: in vivo. As for the experimental part: Myzus persicae—Spray Test
• Solvent: 78 parts by weight of acetone • 1.5 parts by weight of dimethylformamide • Emulsifier: alkylaryl polyglycol ether
as §2
Discs of Chinese cabbage leaves (Brassica pekinensis) infested by all stages of the green peach aphid (Myzus persicae) are sprayed with an active compound preparation of the desired concentration.
After 5-6 days, the efficacy in % is determined. 100% means that all the aphids have been killed; 0% means that no aphids have been killed.

Data set [2] concerns Ctenocephalides felis. Description: Ctenocephalides felis - in vitro contact tests with adult cat fleas. The format is in vivo. The settings on record: application rate 5 μg/cm^2 (500 g/ha); adult cat fleas in coated tubes; after 48 h; dead or moribund. As for the experimental part:
Ctenocephalides felis—In Vitro Contact Tests with Adult Cat Fleas
(§3) For the coating of the test tubes, 9 mg of active compound are first dissolved in 1 ml of acetone p.a. and then diluted to the desired concentration with acetone p.a. 250 μl of the solution are distributed homogeneously on the inner walls and the base of a 25 ml test tube by turning and rocking on an orbital shaker (rocking rotation at 30 rpm for 2 h). With 900 ppm active compound solution and internal surface 44.7 cm^2, given homogeneous distribution, an area-based dose of 5 μg/cm^2 is achieved.
After the solvent has evaporated off, the tubes are populated with 5-10 adult cat fleas (Ctenocephalides felis), sealed with a perforated plastic lid and incubated in a horizontal position at room temperature and ambient humidity. After 48 h, efficacy is determined. To this end, the test tubes are stood upright and the fleas are knocked to the base of the tube. Fleas which remain motionless at the base or move in an uncoordinated manner are considered to be dead or moribund.
100% efficacy means that all the fleas were dead or moribund. 0% efficacy means that no fleas were harmed.

Data set [3] concerns Ctenocephalides felis. Nature of the data set: Ctenocephalides felis - oral test. Type of data set: in vivo. The settings on record: application rate 100 ppm in citrated cattle blood; adult cat fleas; after 2 days. The procedure: Ctenocephalides felis—Oral Test • Solvent: dimethyl sulphoxide To produce a suitable active compound preparation, 10 mg of active compound are mixed with 0.5 ml of dimethyl sulphoxide. Dilution with citrated cattle blood gives the desired concentration. About 20 unfed adult cat fleas (Ctenocephalides felis) are placed into a chamber which is closed at the top and bottom with gauze. A metal cylinder whose bottom end is closed with parafilm is placed onto the chamber. The cylinder contains the blood/active compound preparation, which can be imbibed by the fleas through the parafilm membrane. After 2 days, the kill in % is determined. 100% means that all of the fleas have been killed; 0% means that none of the fleas have been killed.

The subject of a further data set is Lucilia cuprina. Nature of the data set: Lucilia cuprina test. The format is in vivo. Particulars: application rate 100 ppm; L1 larvae in minced horsemeat; after 2 days. As for the experimental part: Lucilia cuprina Test • Solvent: dimethyl sulphoxide To produce a suitable active compound preparation, 10 mg of active compound are mixed with 0.5 ml of dimethyl sulphoxide, and the concentrate is diluted with water to the desired concentration. About 20 L1 larvae of the Australian sheep blowfly (Lucilia cuprina) are transferred into a test vessel containing minced horsemeat and the active compound preparation of the desired concentration. After 2 days, the kill in % is determined. 100% means that all the larvae have been killed; 0% means that no larvae have been killed.

In another data set the test system is Musca domestica. Description: Musca domestica test. The format is in vivo. Particulars: application rate 100 ppm; adult houseflies, sponge with sugar solution; after 2 days. As for the experimental part:
Musca domestica Test • Solvent: dimethyl sulphoxide To produce a suitable active compound preparation, 10 mg of active compound are mixed with 0.5 ml of dimethyl sulphoxide, and the concentrate is diluted with water to the desired concentration. Vessels containing a sponge treated with sugar solution and the active compound preparation of the desired concentration are populated with 10 adult houseflies (Musca domestica). After 2 days, the kill in % is determined. 100% means that all of the flies have been killed; 0% means that none of the flies have been killed.

The subject of the next data set is Meloidogyne incognita. Nature of the data set: Meloidogyne incognita test. Particulars: application rate 20 ppm; egg/larvae suspension with lettuce seeds in sand; formation of galls after 14 days. Type of data set: in vivo. As for the experimental part:
Meloidogyne incognita Test • Solvent: 125.0 parts by weight of acetone To produce a suitable preparation of active compound, 1 part by weight of active compound is mixed with the stated amount of solvent and the concentrate is diluted with water to the desired concentration. Vessels are filled with sand, active compound solution, an egg/larvae suspension of the southern root-knot nematode (Meloidogyne incognita) and lettuce seeds. The lettuce seeds germinate and the plants develop. The galls develop on the roots. After 14 days, the nematicidal efficacy in % is determined by the formation of galls. 100% means that no galls were found; 0% means that the number of galls on the treated plants corresponds to the untreated control.

A further data set relates to Tetranychus urticae. Nature of the data set: Tetranychus urticae - spray test, OP-resistant. The format is in vivo. Particulars: application rate 500 g/ha; all stages of greenhouse red spider mite on bean leaf discs; after 6 days. The procedure:
Tetranychus urticae—Spray Test, OP-Resistant
as §1, §2
Discs of bean leaves (Phaseolus vulgaris) infested with all stages of the greenhouse red spider mite (Tetranychus urticae) are sprayed with an active compound preparation of the desired concentration.
After 6 days, the efficacy in % is determined. 100% means that all the spider mites have been killed; 0% means that no spider mites have been killed.

Another data set relates to Rhipicephalus sanguineus. Description: Rhipicephalus sanguineus - in vitro contact tests with adult brown dog ticks. The format is in vivo. Particulars: application rate 5 μg/cm^2 (500 g/ha); adult brown dog ticks in coated tubes; after 48 h; dead or moribund. As for the experimental part: Rhipicephalus sanguineus—In Vitro Contact Tests with Adult Brown Dog Ticks
as §3
After the solvent has evaporated off, the tubes are populated with 5-10 adult dog ticks (Rhipicephalus sanguineus), sealed with a perforated plastic lid and incubated in a horizontal position in the dark at room temperature and ambient humidity. After 48 h, efficacy is determined. To this end, the ticks are knocked to the base of the tube and incubated on a hotplate at 45-50° C. for not more than 5 min. Ticks which remain motionless on the base or move in such an uncoordinated manner that they are unable to deliberately avoid the heat by climbing upwards are considered to be dead or moribund.
An efficacy of 100% means that all the ticks were dead or moribund. 0% efficacy means that none of the ticks were harmed.

The next data set concerns Boophilus microplus. Nature of the data set: Boophilus microplus - injection test. The format is in vivo. Particulars: application rate 20 μg/animal; injected into engorged adult female cattle ticks; laying of fertile eggs after 7 days. As for the experimental part: Boophilus microplus—Injection Test
• Solvent: dimethyl sulphoxide
To produce a suitable active compound preparation, 10 mg of active compound are mixed with 0.5 ml of solvent and the concentrate is diluted with solvent to the desired concentration. 1 μl of the active compound solution is injected into the abdomen of 5 engorged adult female cattle ticks (Boophilus microplus). The animals are transferred into dishes and kept in a climate-controlled room.
Efficacy is assessed after 7 days by laying of fertile eggs. Eggs which are not visibly fertile are stored in a climate-controlled cabinet until the larvae hatch after about 42 days. An efficacy of 100% means that none of the ticks has laid any fertile eggs; 0% means that all the eggs are fertile.

Where [4] appears, read: Phaedon cochleariae, foliar, 168 h, read-out: efficacy.

Turning to `CCS(=O)(=O)c1ccc(NC(C)=O)nc1-c1nc2cc(C(F)(F)F)ccc2n1C` [Example I-2, N-{5-(Ethylsulphonyl)-6-[1-methyl-5-(trifluoromethyl)-1H-benzimidazol-2-yl]pyridin-2-yl}acetamide], in [1], the chromatographic logP turned out to be 2.5. Further, the pest or weed control at 500 g/ha in the data set on Phaedon cochleariae (setting [4]) was found to be 100%. The efficacy in the data set with Spodoptera frugiperda, with Myzus persicae and in the data set with Ctenocephalides felis [2] was 100% throughout. In addition, the “efficacy (kill)” value with Ctenocephalides felis [3] turned out to be 95%; in the data set with Lucilia cuprina it was 100%; in the data set on Musca domestica it was 90%.

Regarding `CCS(=O)(=O)c1ccc(-n2cc(C(F)(F)F)cn2)nc1-c1nc2cc(C(F)(F)F)cnc2n1C` [Example I-4, 2-{3-(Ethylsulphonyl)-6-[4-(trifluoromethyl)-1H-pyrazol-1-yl]pyridin-2-yl}-3-methyl-6-(trifluoromethyl)-3H-imidazo[4,5-b]pyridine], the chromatographic logP in data set [1] came to 4.04. In addition, in the data set on Phaedon cochleariae (Phaedon cochleariae, foliar, 168 h, application rate 100 g/ha, read-out: efficacy), the pest or weed control at 100 g/ha worked out at 83%. The efficacy in the data set on Spodoptera frugiperda stood at 100%. Moreover, the figures for the “efficacy (kill)” value in the data set with Lucilia cuprina and with Musca domestica were 100% and 80%, respectively.

`CCS(=O)(=O)c1ccc(N)nc1-c1nc2cc(C(F)(F)F)cnc2n1C` [Example I-6, 5-(Ethylsulphonyl)-6-[3-methyl-6-(trifluoromethyl)-3H-imidazo[4,5-b]pyridin-2-yl]pyridin-2-amine]: in data set [1], the chromatographic logP came to 2.02. For the same molecule, the pest or weed control at 500 g/ha with Phaedon cochleariae (setting [4]) was found to be 100%. Also, the efficacy in the data set on Myzus persicae came to 90%. The molecule also returned a nematicidal efficacy in the data set on Meloidogyne incognita of 90%.

Molecule `CCS(=O)(=O)c1ccc(N)nc1-c1nc2cc3c(cc2n1C)OC(F)(F)O3` [Example I-8, 6-(2,2-Difluoro-7-methyl-[1,3]dioxolo[4,5-f]benzimidazol-6-yl)-5-ethylsulphonylpyridin-2-amine] registered a chromatographic logP in [1] of 2.1. For the same molecule, in the data set with Phaedon cochleariae (setting [4]), the pest or weed control at 500 g/ha amounted to 100%. The efficacy worked out at 100% in the data set with Spodoptera frugiperda, 90% in the data set with Tetranychus urticae and 90% in the data set on Myzus persicae.

Turning to `CCS(=O)(=O)c1ccc(NC(=O)C(F)(F)F)nc1-c1nc2cc(C(F)(F)F)ccc2n1C` [Example I-11], in [1], the “log P (neutral)” value amounted to 3.27. For the same molecule, the efficacy with Phaedon cochleariae worked out at 100%; in the data set on Myzus persicae it was 90%; in the data set on Ctenocephalides felis [2] it was 100%; with Rhipicephalus sanguineus it was 80%. The “efficacy (kill)” value in the data set on Ctenocephalides felis [3] and in the data set with Lucilia cuprina was 100% in each case.

`CCS(=O)(=O)c1ccc(NC(=O)C(F)(F)F)nc1-c1nc2cc(C(F)(F)F)cnc2n1C` [Example I-15]: the “log P (neutral)” value in data set [1] turned out to be 2.00. Besides, the efficacy in the data set on Phaedon cochleariae turned out to be 100%; with Spodoptera frugiperda, 83%; with Myzus persicae it was 100%. Moreover, in the data set with Meloidogyne incognita, the nematicidal efficacy is 90%.

Turning to `CCS(=O)(=O)c1ccc(NC(=O)C(C)CS(C)(=O)=O)nc1-c1nc2cc(C(F)(F)F)cnc2n1C` (stereo not drawn) [Example I-21], the “log P (neutral)” value in data set [1] was determined as 2.31. Besides, the efficacy is reported as 100% in the data set with Phaedon cochleariae and 90% in the data set with Myzus persicae. Besides, the nematicidal efficacy with Meloidogyne incognita is reported as 90%.

As to `CCS(=O)(=O)c1ccc(-n2cncn2)nc1-c1nc2cc(C(F)(F)F)cnc2n1C` [Example I-22], the efficacy in the data set on Phaedon cochleariae is given as 100%; in the data set on Spodoptera frugiperda it was 100%; with Myzus persicae, 100%; in the data set with Ctenocephalides felis [2], 100%; in the data set with Boophilus microplus it was 80%. In addition, the “efficacy (kill)” value with Ctenocephalides felis [3] and in the data set on Lucilia cuprina was 100% in each case.
